Results: patent US20160271145A1, “METHOD FOR ENLARGING THE PARTICLE SIZE OF CRYSTALLINE MICROPARTICLES OF ACTIVE SUBSTANCE” (Jesalis Pharma GmbH, priority 2012, published 2016)

What was measured:
[1] = solubility of the active substance in the solvent-antisolvent (acetone-water) mixture of the first suspension; assay type: physicochemical; details: acetone content reduced to 42% by addition of water
Text: Solubilities of the active substance in the solvent-antisolvent mixture of the first suspension of 0.001-0.5 wt. % are suitable for carrying out the method according to the invention. Solubilites of 0.01-0.2 wt. %, in particular 0.02-0.2 wt. % are preferred. By solubility is meant, within the framework of the invention, the usual solubility known to a person skilled in the art, namely the solubility of a substance in thermodynamic equilibrium at room temperature in the solvent-antisolvent mixture. The solubilities are not relative to volume, i.e., they specify the solubility of the active substance in the total volume of the liquid phase of the suspension. It is clear from the stated solubilities that microparticles of active substance are present throughout the method.

[2] = microparticles by the method of DE 102008037025 A1, as stated in the background; cited from earlier work
[3] = granulometric analysis and span by laser diffraction (Sympatec, RODOS), reference test according to DE 102008037025 A1; assay type: physicochemical; details: Comparison example, spray-dried, dispersing pressure 5 bar
Protocol: A 100-ml stirred vessel with blade stirrer is charged with 160 g of Y-stabilized zirconium oxide spheres with a diameter of 0.5 mm plus 30 ml of water. A solution of 0.6 g fluticasone propionate in 10 ml acetone is added to these, with stirring. After stirring for 5 min, a solution of 1.8 g fluticasone in 30 ml acetone and in the same ratio 90 ml water are added dropwise within 10 min, with stirring at 1300 rev/min. Simultaneously, product suspension is drawn off, with approximately constant filling level. Addition and product withdrawal can also take place quasicontinuously in smaller portions without any adverse effect on the result, if the above time frame is maintained. After addition, to complete the yield rinsing is carried out with approx. 60 ml water. Alternatively, the suspension in the crystallizer can be left as starting suspension for the subsequent batch. Altogether, 180 g of suspension with a solids content of 13 mg per ml is obtained. The suspension is then spray-dried Granulometric analysis and span determination were effected by means of laser diffraction (Sympatec Helps, RODOS dispersing system, dispersing pressure 5 bar).

[4] = habit of the particles evaluated on a microscope image (ratio of largest to smallest size); assay type: physicochemical
Protocol: The predominantly spherical shape manifests itself in that in this preferred embodiment the ratio of the largest to the smallest size of the individual particles is on average ≦2. This ratio is determined by measurement on a microscope image of the particles, by determining the ratio of the largest to the smallest size of each individual particle for at least 50 randomly selected particles and then ascertaining the average over the at least 50 particles. Preferably, the ratio of the largest to the smallest size of the individual particles is on average ≦1.6.
Immediately after the end of the stirring time, the batch is filtered using a nutsch filter with a negative pressure of 100 mbar on the filtrate side and washed with 1.0 l water. The moist filter cake has a mass of approx. 1100 g and is transferred into a 3-l container, topped up to 2160 g with water and redispersed with the Ultra Turrax T50 (|KA) at 12,000 1/min for 10 min. After this, the third d50 value is determined to be 1.28 μm from this second suspension. The span value of the particles is 1.28. The habit is evaluated microscopically as stated above (light microscope image). Habit of the particles: spherical; ratio of the largest to the smallest size of the individual particles on average=1.48. The second suspension is then spray-dried and the particles of fluticasone propionate are obtained.

[5] = particle size (d50) and span by laser diffraction, Mastersizer E; assay type: physicochemical; details: for d50 value of the particle size distribution (first d50): acetone:water 1:1
Text: The particle size distribution and the diameters of the particles within the framework of the invention are relative to volume. dx means that x percent by volume (vol. %) of the particles have a diameter which is smaller than the stated value. With a d50 value of 1 μm therefore 50 vol. % of the particles have a diameter smaller than 1 μm (micrometre). If d10 or […] is 1 μm, 10 or 90 vol. %, respectively, of the particles have a diameter smaller than 1 μm. The d50 value is also called average particle size or average particle diameter.
Within the framework of the invention, the average particle size (d50 values) and the particle size distribution were measured by means of laser diffraction, which provides a distribution of the particle sizes. A Mastersizer E (Malvern Instruments) was used. 5 mg solid is dispersed for 20 min in 5 ml 0.1% aqueous sodium dodecyl sulphate solution using ultrasound (2 mm sonotrode, sonicator UPS 200, Dr. Hielscher GmbH, 30% amplitude) and placed in the measurement cell of the Mastersizer E, an optical concentration of 18% is set and measurement is carried out (Fraunhofer evaluation). The span was calculated from the d10, d50 and d90 values ((d90 −d10);d50 ).

[6] = Example 1, light microscope image
[7] = Example 2, mixture of the second suspensions of the preceding and subsequent batch

What does the source list for `CCC(=O)O[C@]1(C(=O)SCF)[C@H](C)C[C@H]2[C@@H]3C[C@H](F)C4=CC(=O)C=C[C@]4(C)[C@@]3(F)[C@@H](O)C[C@@]21C` [fluticasone propionate]?
solubility of fluticasone propionate [1]: 0.032 wt. %; d50 values [2]: 1-2 μm; span values [2]: ≥ 1.7; d50 [3]: 1.47 μm; span [3]: 1.78; habit of the particles [4, 6]: spherical; ratio of the largest to the smallest size of the individual particles on average [4, 6]: 1.48; habit of the particles ([4]; Example 2, subsequent batch): spherical; ratio of the largest to the smallest size of the individual particles on average ([4]; Example 2, subsequent batch): 1.45; second d50 ([5]; Example 1, after 4.5 h stirring, 42% acetone): 1.12 μm; span value of the particles ([5]; Example 1, second suspension): 1.28; third d50 value ([5]; Example 1, second suspension after further 17 h stirring, filtration and redispersing in water): 1.28 μm; d50 value of the particle size distribution (first d50) ([5]; Example 1, starting suspension): 0.98 μm; d50 value [5, 7]: 1.28 μm; span value of the distribution [5, 7]: 1.28; second d50 value ([5]; Example 2, preceding batch, after 4.0 h stirring, 42% acetone): 1.12 μm; span value of the distribution ([5]; Example 2, preceding batch, second suspension): 1.29; third d50 value ([5]; Example 2, preceding batch, second suspension after further 13 h stirring): 1.24 μm; d50 value of the particle size distribution (first d50) ([5]; Example 2, preceding batch, starting suspension): 0.99 μm; intermediate d50 value ([5]; Example 2, subsequent batch, after 3.5 h stirring, 42% acetone): 1.09 μm; span value of the distribution ([5]; Example 2, subsequent batch, second suspension): 1.24; third d50 value ([5]; Example 2, subsequent batch, second suspension, stirring time increased to 18 h): 1.30 μm; d50 value of the particle size distribution (first d50) ([5]; Example 2, subsequent batch, starting suspension): 0.97 μm
